Experimental data reported in patent publication US4769384A, “Benzimidazole derivatives” (Nippon Shinyaku Co. Ltd., priority 1985, dated 1988).

What was measured:
Format in all cases: in vivo
[1] = Anti-ulcer action: water-immersion stress ulcer in rats, oral (ulcer index); conditions: per os
Method: Biological test method: Male rats of seven weeks of age were fasted for 24 hours and subjected to the test. The compound to be tested was suspended in a physiological saline solution containing 0.5% methylcellulose therein. 10 ml/kg of it was administered orally. The animals were immediately placed in a stress cage and immersed in a water bath of 23° C. to the depth of xiphoid. After 17 hours, they were sacrificed by cervical dislocation. The stomach was isolated therefrom. 7 ml of 2% formaline solution was introduced into the stomach for fixation. Then the stomach was cut along a greater curvature. The length of ulcer produced in fundus was measured under a microscope and the total ulcer length (in mm) was defined as an ulcer index per rat. Significance between mean ulcer indices was verified by the Student t-test.

[2] = Acute toxicity, oral, rats; conditions: p.o., two weeks
Method: (§1) Method: Male mice of six weeks of age or male rats of six weeks of age were fasted for 24 hours and subjected to the test.
(§2) The compound to be tested was suspended in physiological saline solution containing 0.5% of methylcellulose. The suspension was administered orally.

[3] = Acute toxicity, oral, mice; conditions: p.o., two weeks
Method: as §1, §2

[4] = 10 mg/kg (# dose of salt as the corresponding base)
[5] = 20 mg/kg (# dose of salt as the corresponding base)
[6] = 5 mg/kg (# dose of salt as the corresponding base)
[7] = 40 mg/kg (# dose of salt as the corresponding base)
[8] = 80 mg/kg (# dose of salt as the corresponding base)
[9] = 5 mg/kg (# dose of salt as the corresponding base), 5 mg/kg
[10] = 10 mg/kg (# dose of salt as the corresponding base), 10 mg/kg
[11] = 20 mg/kg (# dose of salt as the corresponding base), 20 mg/kg

Question: Which “Antiulcer Action (inhibition %) after 17 hours” value (from here on “Antiulcer Action (inhibition %)”) ([1]; 200 mg/kg) does the source give for `CN/C(=N/CCSCc1nc[nH]c1C)NC#N` [Cimetidine, reference compound] here?
Answer: 66%

Question: Which results are given for `COC(=O)c1cccc2nc(/C=C/c3ccc(OC)cc3)[nH]c12` [Example 14, Methyl (E)-2-(4-methoxystyryl)benzimidazole-4-carboxylate]?
Answer: Antiulcer Action (inhibition %) after 17 hours ([1]; 20 mg/kg): 26%; Antiulcer Action (inhibition %) after 17 hours ([1]; 40 mg/kg): 81%; Antiulcer Action (inhibition %) after 17 hours ([1]; 80 mg/kg): 96%; Death Ratio ([2]; 2000 mg/kg): 0/4

Question: With `COC(=O)c1cccc2nc(/C=C/c3ccc(OC)c(OC)c3)[nH]c12` [1 (phosphate), Methyl (E)-2-(3,4-dimethoxystyryl)benzimidazole-4-carboxylate] as the molecule, how does the “Antiulcer Action (inhibition %)” value [1, 4] read?
Answer: 66%

Question: What about the “Antiulcer Action (inhibition %)” value [1, 5] of the same molecule?
Answer: 92%

Question: What about the “Death Ratio” value ([3]; 2580 mg/kg) of the same molecule?
Answer: 0/3

Question: What about the “Death Ratio” value ([2]; 2580 mg/kg) of the same molecule?
Answer: 0/4

Question: Which “Antiulcer Action (inhibition %)” value [1, 6] does the source give for `COC(=O)c1cccc2nc(/C=C/c3ccc(OC)c(OC)c3)[nH]c12.O=S(=O)(O)O` [Example 67, Methyl (E)-2-(3,4-dimethoxystyryl)benzimidazole-4-carboxylate sulfate] here?
Answer: 48%

Question: What about the “Antiulcer Action (inhibition %)” value [1, 4] of the same molecule?
Answer: 72%

Question: Which “Antiulcer Action (inhibition %)” value [1, 6] does the source give for `Br.COC(=O)c1cccc2nc(/C=C/c3ccc(OC)c(OC)c3)[nH]c12` [Example 69, Methyl (E)-2-(3,4-dimethoxystyryl)benzimidazole-4-carboxylate hydrobromide] here?
Answer: 38%

Question: And the “Antiulcer Action (inhibition %)” value [1, 4]?
Answer: 82%

Question: What about the “Death Ratio” value ([3]; 2560 mg/kg) of the same molecule?
Answer: 2/5

Question: What does the source list for `COC(=O)c1cccc2nc(/C=C/c3ccc(OC)c(OC)c3)[nH]c12.O=S(=O)(O)c1ccccc1` [Example 86, Methyl (E)-2-(3,4-dimethoxystyryl)benzimidazole-4-carboxylate benzenesulfonate]?
Answer: Antiulcer Action (inhibition %) after 17 hours [1, 6]: 4%; Antiulcer Action (inhibition %) after 17 hours [1, 4]: 35%; Antiulcer Action (inhibition %) after 17 hours [1, 5]: 98%; Death Ratio ([2]; 2280 mg/kg): 0/3

Question: Which “Antiulcer Action (inhibition %)” value [1, 5] does the source give for `C#CCOc1ccc(/C=C/c2nc3c(C(=O)OC)cccc3[nH]2)cc1` [Example 30, Methyl (E)-2-[4-(2-propynyloxy)styryl]benzimidazole-4-carboxylate phosphate] here?
Answer: 44%

Question: And the “Antiulcer Action (inhibition %)” value [1, 7]?
Answer: 55%

Question: And the “Antiulcer Action (inhibition %)” value [1, 8]?
Answer: 82%

Question: For `COC(=O)c1cccc2nc(/C=C/c3ccc(OC)cc3)[nH]c12.O=P(O)(O)O` [Example 54, Methyl (E)-2-(4-methoxystyryl)benzimidazole-4-carboxylate phosphate], which “Antiulcer Action (inhibition %)” value [1, 5] is on record?
Answer: 55%

Question: And the “Antiulcer Action (inhibition %)” value [1, 7]?
Answer: 86%

Question: What about the “Antiulcer Action (inhibition %)” value [1, 8] of the same molecule?
Answer: 98%

Question: What about the “Death Ratio” value ([2]; 2636 mg/kg) of the same molecule?
Answer: 0/4

Question: With `CCOc1ccc(/C=C/c2nc3cccc(C(=O)OC)c3[nH]2)cc1OC.O=P(O)(O)O` [Example 53, Methyl (E)-2-(4-ethoxy-3-methoxystyryl)benzimidazole-4-carboxylate phosphate] as the molecule, how does the “Antiulcer Action (inhibition %)” value [1, 5] read?
Answer: 81%

Question: And the “Antiulcer Action (inhibition %)” value [1, 7]?
Answer: 99%

Question: What about the “Antiulcer Action (inhibition %)” value [1, 8] of the same molecule?
Answer: 99%

Question: Which “Antiulcer Action (inhibition %)” value [1, 9] does the source give for `COC(=O)c1cccc2nc(/C=C/c3ccc(OC)c(OC)c3)[nH]c12` [Example 65, Methyl (E)-2-(3,4-dimethoxystyryl)benzimidazole-4-carboxylate d-10-camphorsulfonate] here?
Answer: 12%

Question: What about the “Antiulcer Action (inhibition %)” value [1, 10] of the same molecule?
Answer: 69%

Question: And the “Antiulcer Action (inhibition %)” value [1, 11]?
Answer: 89%

Question: And the “Death Ratio” value ([3]; 3440 mg/kg)?
Answer: 2/5

Question: Which “Antiulcer Action (inhibition %)” value ([1]; 10 mg/kg) does the source give for `COC(=O)c1cccc2nc(/C=C/c3ccc(OC)c(OC)c3)[nH]c12` [Example 1, Methyl (E)-2-(3,4-dimethoxystyryl)benzimidazole-4-carboxylate] here?
Answer: 40%

Question: And the “Antiulcer Action (inhibition %)” value ([1]; 20 mg/kg)?
Answer: 78%

Question: And the “Antiulcer Action (inhibition %)” value ([1]; 40 mg/kg)?
Answer: 97%

Question: What about the “Death Ratio” value ([3]; 2000 mg/kg) of the same molecule?
Answer: 0/5

Question: What about the “Death Ratio” value ([2]; 2000 mg/kg) of the same molecule?
Answer: 1/4

Question: With `COC(=O)c1cccc2nc(/C=C/c3ccc(OC)c(OC)c3)[nH]c12.Cl` [Example 70, Methyl (E)-2-(3,4-dimethoxystyryl)benzimidazole-4-carboxylate hydrochloride] as the molecule, how does the “Antiulcer Action (inhibition %)” value [1, 6] read?
Answer: 3%

Question: And the “Antiulcer Action (inhibition %)” value [1, 4]?
Answer: 72%

Question: What about the “Antiulcer Action (inhibition %)” value [1, 5] of the same molecule?
Answer: 80%

Question: What about the “Death Ratio” value ([3]; 2340 mg/kg) of the same molecule?
Answer: 1/5

Question: Which “Antiulcer Action (inhibition %)” value [1, 9] does the source give for `COC(=O)c1cccc2[nH]c(/C=C/c3ccc(OC)c(OC)c3)nc12` [Example 66, Methyl (E)-2-(3,4-dimethoxystyryl)benzimidazole-4-carboxylate 1-naphthalenesulfonate] here?
Answer: 7%

Question: What about the “Antiulcer Action (inhibition %)” value [1, 10] of the same molecule?
Answer: 63%

Question: And the “Antiulcer Action (inhibition %)” value [1, 11]?
Answer: 87%
